In patent publication US20100093001A1 (priority 2006, published 2010):

Protocol for neuronal cells: Amyloid-beta-42 was incubated for one week at 1 mg/mL in 50mM Tris-HCl pH 7.4 and controlled the presence of amyloid-beta-42 fibers by electron microscopy. These mature amyloid-beta-42 (Aβ42) fibers were subsequently harvested by centrifugation and added to primary hippocampal mouse neurons and differentiated N2A cells at a final concentration of 5 μM.

Substance	cytotoxicity (primary neurons)	N. Red (neutral red incorporation) (neuronal cells)
H-ISFLIF-OH [NH2—ISFLIF—COOH]	dramatic cytotoxicity	–
H-KVQIIN-OH [NH2—KVQIIN—COOH]	dramatic cytotoxicity	–
H-STVIIE-OH [NH2—STVIIE—COOH]	dramatic cytotoxicity	–
ganglioside GM1	–	36.1 ± 2.9
